# Reference: patent US20250186391A1, “ORAL COMPLEMENT FACTOR D INHIBITORS” (BioCryst Pharmaceuticals, Inc., priority 2019, published 2025)
# pIC50: −log10 of the molar value.
# Molecular target: Factor D (Homo sapiens (Human), UniProt P00746)
# Assay: Factor D esterolytic assay
# Type: biochemical
# Settings: Z-Lys-SBzl substrate, 100 mM HEPES, 500 mM NaCl, pH 7.5, 10% DMSO; tested a minimum of three times; read-out: Measured Ki (IC50) Value for Compounds: IC50
# Experimental: The IC50 value of a compound (i.e., the concentration of the compound that inhibits 50% of the enzymatic activity) was calculated according to the procedure reported in U.S. Pat. No. 6,653,340 B1, e.g., column 74 (incorporated by reference).
# Specifically, the compounds were dissolved in a stock solution of DMSO at 10.0 or 100 mM. A portion of this stock solution was added to assay buffer in a final volume of 50 μL. Controls included buffer alone and enzyme solutions to which DMSO was added. Substrate was added to the reaction wells immediately or after incubation at room temperature. The reaction rates were measured spectrophotometrically by the generation of product at 405 nm for 600 sec. Background absorbance at 690 nm was measured and subtracted from the absorbance at 405 nm for each well.
# The reaction rate for enzyme alone was compared to the rate of enzyme in the presence of inhibitor and the percent inhibition was calculated as shown below: […]
# An established esterolytic assay for the measurement of Factor D activity and inhibition of Factor D activity was used (Kam, C. M.; McRae, B. J.; Harper, J. W.; Niemann, M. A.; Volanakis, J. E.; Powers, J. C. Human complement proteins D, C2, and B Active site mapping with peptide thioester substrates. J Biol. Chem. 1987, 262, 3444-3451). For this assay Z-Lys-SBzl, 1.29 mM (Kim, S.; Narayana, S. V. L; Volanakis, J. E. Mutational analysis of the substrate binding site of human complement Factor D. Biochemistry. 1994, 33, 14393-14399.) was used as the substrate for Factor D ([…]). Hydrolysis of this compound by Factor D liberated a free sulfhydryl group which is then reacted with 5,5′-dithiobis(2nitrobenzoic acid) producing an intense yellow color (Habeeb, A. F. S. A. Reaction of protein sulfhydryl groups with Ellman's Reagent. Methods in Enzymol. 1976, 25, 457-464.). The assays were performed in 96 well microtiter plates and rates of hydrolysis were monitored at 405 nm on a Biotek Synergy H1 plate reader. Hydrolysis rates were reported as change in mOD/min. The assay was conducted in 100 mM HEPES, 500 mM NaCl, pH 7.5 containing 10% DMSO in a final volume of 50 μL per well.
# An IC50, a compound concentration which inhibits 50% of the enzymatic activity, was calculated. Compounds in the examples were tested a minimum of three times.
# Sequence of Factor D (P00746 26-253): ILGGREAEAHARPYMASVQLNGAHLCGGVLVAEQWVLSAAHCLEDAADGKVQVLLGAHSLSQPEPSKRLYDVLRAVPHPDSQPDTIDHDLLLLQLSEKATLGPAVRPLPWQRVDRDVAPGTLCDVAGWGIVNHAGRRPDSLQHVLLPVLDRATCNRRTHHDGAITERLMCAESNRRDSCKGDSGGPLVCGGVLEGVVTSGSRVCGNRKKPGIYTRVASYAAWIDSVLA
row,Structure (SMILES),pIC50
1,"NCc1cccc(-c2ccc3occ(COc4ccccc4CCC(=O)O)c3c2)c1 [Compound 2d, 3-(2-((5-(3-(aminomethyl)phenyl)benzofuran-3-yl)methoxy)phenyl)propanoic acid]",5.00 to 6.00
2,"NCc1cccc(-c2ccc3occ(COc4cccc(CC(=O)O)c4)c3c2)c1 [Compound 4d, 2-(3-((5-(3-(aminomethyl)phenyl)benzofuran-3-yl)methoxy)phenyl)acetic acid]",5.00 to 6.00
3,"NCc1cccc(-c2cc(COc3cccc(CC(=O)O)c3)cc3cc(COc4ccccc4CC(=O)O)oc23)c1 [Compound 16e, 2-(3-((7-(3-(aminomethyl)phenyl)-2-((2-(carboxymethyl)phenoxy)methyl)benzofuran-5-yl)methoxy)phenyl)acetic acid]",> 6.00
4,"Cc1cc(-c2cccc(CN)c2)cc2c(COc3ccccc3CC(=O)O)coc12 [Compound 17e, 2-(2-((5-(3-(aminomethyl)phenyl)-7-methylbenzofuran-3-yl)methoxy)phenyl)acetic acid]",> 6.00
5,"COc1cc(-c2cccc(CN)c2)cc2c(COc3ccccc3CC(=O)O)coc12 [Compound 18e, 2-(2-((5-(3-(aminomethyl)phenyl)-7-methoxybenzofuran-3-yl)methoxy)phenyl)acetic acid]",> 6.00
6,"NCc1cccc(-c2cccc3cc(COc4ccccc4CC(=O)O)oc23)c1 [Compound 19e, 2-(2-((7-(3-(aminomethyl)phenyl)benzofuran-2-yl)methoxy)phenyl)acetic acid]",> 6.00
7,"NCc1cccc(-c2cc(COc3ccccc3CC(=O)O)cc3cc(CCOc4ccccc4CC(=O)O)oc23)c1 [Compound 20j, 2-(2-((7-(3-(aminomethyl)phenyl)-2-(2-(2-(carboxymethyl)phenoxy)ethyl)benzofuran-5-yl)methoxy)phenyl)acetic acid]",> 6.00
8,"NCc1cccc(-c2cccc3cc(C(=O)Nc4ccccc4CC(=O)O)oc23)c1 [Compound 21b, 2-(2-(7-(3-(aminomethyl)phenyl)benzofuran-2-carboxamido)phenyl)acetic acid]",5.00 to 6.00
9,"CCOC(=O)Cc1ccccc1OCc1cc(-c2cccc(CN)c2)c2oc(COc3ccccc3CC(=O)O)cc2c1 [Compound 22e, 2-(2-((7-(3-(aminomethyl)phenyl)-5-((2-(2-ethoxy-2-oxoethyl)phenoxy)methyl)benzofuran-2-yl)methoxy)phenyl)acetic acid]",> 6.00
10,"COC(=O)c1cc(-c2cccc(CN)c2)c2oc(COc3ccccc3CC(=O)O)cc2c1 [Compound 23c, 2-(2-((7-(3-(aminomethyl)phenyl)-5-(methoxycarbonyl)benzofuran-2-yl)methoxy)phenyl)acetic acid]",> 6.00
11,"CC(C)(C)OC(=O)Cc1ccccc1OCc1cc2cc(COc3ccccc3CC(=O)O)cc(-c3cccc(CN)c3)c2o1 [Compound 24a, 2-(2-((7-(3-(aminomethyl)phenyl)-2-((2-(2-(tert-butoxy)-2-oxoethyl)phenoxy)methyl)benzofuran-5-yl)methoxy)phenyl)acetic acid]",> 6.00
12,"CCOC(=O)Cc1ccccc1OCc1cc2c(-c3cccc(CN)c3)cccc2o1 [Compound 25c, ethyl 2-(2-((4-(3-(aminomethyl)phenyl)benzofuran-2-yl)methoxy)phenyl)acetate]",< 5.00
13,"NCc1cccc(-c2cccc3oc(COc4ccccc4CC(=O)O)cc23)c1 [Compound 26a, 2-(2-((4-(3-(aminomethyl)phenyl)benzofuran-2-yl)methoxy)phenyl)acetic acid]",> 6.00
14,"NCc1cc(-c2cc(COc3ccccc3CC(=O)O)cc3cc(COc4ccccc4CC(=O)O)oc23)ccn1 [Compound 27e, 2,2′-((((7-(2-(aminomethyl)pyridin-4-yl)benzofuran-2,5-diyl)bis(methylene))bis(oxy))bis(2,1-phenylene))diacetic acid]",> 6.00
15,"NCc1nccc(-c2cc(COc3ccccc3CC(=O)O)cc3cc(COc4ccccc4CC(=O)O)oc23)c1F [Compound 28d, 2,2′-((((7-(2-(aminomethyl)-3-fluoropyridin-4-yl)benzofuran-2,5-diyl)bis(methylene))bis(oxy))bis(2,1-phenylene))diacetic acid]",> 6.00

# Now from value to molecule:
row,pIC50,Structure (SMILES)
1,> 6.00,"NCc1cccc(-c2ccc3occ(COc4ccccc4C(=O)O)c3c2)c1 [Compound 1f, 2-((5-(3-(aminomethyl)phenyl)benzofuran-3-yl)methoxy)benzoic acid]"
2,> 6.00,"NCc1cccc(-c2ccc3occ(COc4ccc(F)cc4CC(=O)O)c3c2)c1 [Compound 5d, 2-(2-((5-(3-(aminomethyl)phenyl)benzofuran-3-yl)methoxy)-5-fluorophenyl)acetic acid]"
3,> 6.00,"COc1ccc(CC(=O)O)c(OCc2coc3ccc(-c4cccc(CN)c4F)cc23)c1 [Compound 6e, 2-(2-((5-(3-(aminomethyl)-2-fluorophenyl)benzofuran-3-yl)methoxy)-4-methoxyphenyl)acetic acid]"
4,> 6.00,"NCc1cccc(-c2cc(COc3ccccc3CC(=O)O)cc3cc(COc4ccccc4CC(=O)O)oc23)c1 [Compound 7f, 2,2′-((((7-(3-(aminomethyl)phenyl)benzofuran-2,5-diyl)bis(methylene))bis(oxy))bis(2,1-phenylene))diacetic acid]"
5,> 6.00,"NCc1cccc(-c2cc(-c3cccc(CN)c3)c3oc(COc4ccccc4CC(=O)O)cc3c2)c1 [Compound 8e, 2-(2-((5,7-bis(3-(aminomethyl)phenyl)benzofuran-2-yl)methoxy)phenyl)acetic acid]"
6,> 6.00,"NCc1cccc(-c2ccc3occ(COc4ccccc4CC(=O)O)c3c2)c1 [Compound 9e, 2-(2-((5-(3-(aminomethyl)phenyl)benzofuran-3-yl)methoxy)phenyl)acetic acid]"
7,> 6.00,"NCc1cccc(-c2ccc3occ(C(=O)Nc4ccccc4CC(=O)O)c3c2)c1 [Compound 10c, 2-(2-(5-(3-(aminomethyl)phenyl)benzofuran-3-carboxamido)phenyl)acetic acid]"
8,> 6.00,"NCc1cccc(-c2cc(CNCC3CC3)cc3cc(COc4ccccc4CC(=O)O)oc23)c1 [Compound 11d, 2-(2-((7-(3-(aminomethyl)phenyl)-5-(((cyclopropylmethyl)amino)methyl)benzofuran-2-yl)methoxy)phenyl)acetic acid]"
9,> 6.00,"CCc1ccc(CC(=O)O)c(OCc2coc3ccc(-c4cccc(CN)c4F)cc23)c1 [Compound 12g, 2-(2-((5-(3-(aminomethyl)-2-fluorophenyl)benzofuran-3-yl)methoxy)-4-ethylphenyl)acetic acid]"
10,> 6.00,"NCc1cccc(-c2cc(COc3ccccc3CC(=O)O)cc3cc(COc4ccccc4CC(=O)O)oc23)c1F [Compound 13b, 2,2′-((((7-(3-(aminomethyl)-2-fluorophenyl)benzofuran-2,5-diyl)bis(methylene))bis(oxy))bis(2,1-phenylene))diacetic acid]"
11,> 6.00,"NCc1cccc(-c2ccc3[nH]cc(C(=O)Nc4ccccc4CC(=O)O)c3n2)c1 [Compound 14c, 2-(2-(5-(3-(aminomethyl)phenyl)-1H-pyrrolo[3,2-b]pyridine-3-carboxamido)phenyl)acetic acid]"
12,> 6.00,"NCc1cccc(-c2cc(COc3ccccc3CCC(=O)O)cc3cc(COc4ccccc4CC(=O)O)oc23)c1 [Compound 15e, 3-(2-((7-(3-(aminomethyl)phenyl)-2-((2-(carboxymethyl)phenoxy)methyl)benzofuran-5-yl)methoxy)phenyl)propanoic acid]"
